According to patent publication US7026344B2, “Treating sickle cell disease” (priority 2000, dated 2006):
Where “and” joins values, the source holds several entries; their conditions need not be identical. Equal values may be shown once.

Tests used:
[1] = test system: human γ (Huγ) mRNA in K562 cells; experiment: γ globin mRNA induction in K562 cells by RNase protection assay; type: cell-based; conditions: K562, 48 hours, normalized to GAPD vs untreated
Description: Cell Culture. K562 cells were grown in suspension cultures in RPMI-1640 containing 10% fetal bovine serum, penicillin (100 U/ml) and streptomycin (0.1 mg/ml in a humidified incubator at 37° C. in a 5%CO2/95% air atmosphere. The following experimental conditions were analyzed in triplicate with 2×10^6 cells per well: an untreated control, ZL dissolved in 0.1% dimethylsulfoximide (DMSO) at final concentrations of […], HU at […] and two positive controls hemin (50 mM) and sodium butyrate (NB) 2 mM. The K562 cells were induced for 72 hours then RNA isolated for further analysis. Cell viability was completed by 2% trypan blue exclusion at timnes 0 and 72 hours.
RNA Isolation. RNA was isolated using RNA Stat-60 (TEL-TEST “B”, Inc., Friendswood, Tex.) according to the manufacturer's instructions. In brief, cell pellets will be suspended in RNA Stat-60 (1 ml) and chloroform (200 μl), and the RNA extracted and precipitated with isopropanol.
RNase Protection Analysis. MRNA levels will be quantitated by RNase protection assay (RPA) with probes designed to yield protected fragments for human γ (Huγ)and the internal control glyceraldehydes-3-phosphate dehydrogenase (GAPD). Huγ mRNA levels were normalized to that of GAPD and compared to the untreated K562 cells. (Zar: Statistical Analysis, Englewood)
Several pharmacological hemoglobin F inducers such as HU, 5-azacytidine, erythropoietin, didox, and butyrate alter γ gene expression in culture. The induction of γ gene activity in culture is a good indicator of potential clinical usefulness. Therefore the capability of ZL to induce γ gene activity at the mRNA level was tested. K562 cells were cultured in ZL from 0 to 100 μM or HU (50μ to 100 μM) for 48 hours. Total cellular RNA was analyzed by RPA for γ mRNA levels. An increase in γ mRNA for ZL at 20 μM with a maximal response at 75 μM (FIG. 4A) was observed. The level of γ gene mRNA synthesis was quantitated relative to the internal control, CAPD. […] K562 cell viability was decreased 10% when measured using trypan blue exclusion at 75 μM and 100 μM concentrations for both ZL and HU. The level of γ gene induction was 3.9 fold and 10-fold for the positive controls NB and hemin, respectively.

[2] = test system: fetal hemoglobin production in primary erythroid progenitors from Hb SS patients; experiment: Hemoglobin F determination in erythroid progenitors, Hb SS patients; type: cell-based, human; conditions: for fold increase in hemoglobin F: 0 versus 100 μM, Hb SS patients; for HbF Difference: 0 vs 100 μM, sickle cell patients
Description: (§1) BFU-E Colony Growth. Mononuclear cells were isolated from the peripheral blood of each patient studied by density gradient centrifugation using Histapaque-1077 (Sigma). Erythroid progenitors were obtained in methylcellulose culture. ZL was added on day 0 at 25, 50, 75, or 100 μM concentrations for 13–14 days at which time the number of BFU-E colonies were counted on an inverted microscope and harvested for hemoglobin determinations.
Hemoglobin F determination. The erythroid progenitors were collected, washed in PBS then lysed at room temperature in 200 μl of water. The supernatant was split into two tubes, one for total hemoglobin determination and one for hemoglobin F determination. In brief, IgG (10 μl), 1.2 N NaOH (7 μl) and saturated (NH4)2SO4 (70 μl) were added to the hemoglobin F sample. The denatured hemoglobin was pelleted and the supernatant containing hemoglobin F was mixed with 500 μl of tetramethyl benzidine and 500 μl of H2O2 at room temperature then quantitated on a spectrophotometer at 600 nm. The percentage of fetal hemoglobin to total hemoglobin was determined.
(§2) The capability of ZL to induce hemoglobin F in primary erythroid progenitors, grown from peripheral blood mononuclear cells (MNC) was analyzed. BFU-E colonies were grown in methylcellulose cultures supplemented with erthyopoietin and interleukin-3 and ZL at concentration from 0 to 100 μM. Three patients homozygous for hemoglobin S (Hb SS) were analyzed with triplicate experiments. The average BFU-E colony number was 123.2±18.6 without ZL compared to 10.6±2.0 at 100 μM concentrations, p<0.05 (Table 1). […] All pair-wise comparisons for BFU-E and hemoglobin F between 0μ and other concentrations (25, 50, 75 and 100 μM) were significant at p<0.05. The correlation coefficient between the number of BFU-E colonies or percent hemoglobin F and different levels of ZL is −0.90 and +0.79, respectively (p<0.05). […] (See Yang et al., BFU-E colony growth in response to hydroxyurea: correlation between in vitro and in vivo fetal hemoglobin induction. Am J Hematol. 1997; 56:252–258). […] HU either was more efficient in inhibiting BFU-E colony growth or alternatively the baseline number of colonies on an average was higher for the Hb SS patients in the HU cohort.

[3] = test system: primary erythroid progenitors (BFU-E colonies) from Hb SS patients; experiment: BFU-E colony growth in methylcellulose culture, Hb SS patients; type: cell-based, human; conditions: for fold decrease in BFU-E colony number: 0 versus 100 μM, Hb SS patients; for BFU-E Difference: 0 vs 100 μM, sickle cell patients
Description: as §1, §2

K562 cells = experiment: K562 cell viability by trypan blue exclusion; type: cell-based, human; conditions: 75 μM and 100 μM
Description: Cell Culture. K562 cells were grown in suspension cultures in RPMI-1640 containing 10% fetal bovine serum, penicillin (100 U/ml) and streptomycin (0.1 mg/ml in a humidified incubator at 37° C. in a 5%CO2/95% air atmosphere. […] The K562 cells were induced for 72 hours then RNA isolated for further analysis. Cell viability was completed by 2% trypan blue exclusion at timnes 0 and 72 hours.

[4] = zileuton 25 μM, mean ± SEM of three Hb SS patients
[5] = zileuton 50 μM, mean ± SEM of three Hb SS patients
[6] = zileuton 75 μM, mean ± SEM of three Hb SS patients
[7] = zileuton 100 μM, mean of three Hb SS patients
[8] = zileuton 100 μM, mean of three Hb SS patients, listed as zileuton

CC(c1cc2ccccc2s1)N(O)C(N)=O (racemic) [ZL, (±)-1-(1-Benzo[b]thien-2-ylethyl)-1-hydroxyurea]
fold increase in γ mRNA ([1]; ZL 20 μM): 2.6 fold
fold increase in γ mRNA (maximal) ([1]; ZL 75 μM): 4.1 fold
fold increase in hemoglobin F [2]: 4.8 fold
HbF Difference [2]: 12.6 ± 1.1%
HbF ([2]; zileuton 25 μM, individual Hb SS patients (No. 1-3)): 3% and 4% and 11%
HbF [2, 4]: 6.2 ± 1.4%
HbF ([2]; zileuton 50 μM, individual Hb SS patients (No. 1-3)): 6% and 7% and 14%
HbF [2, 5]: 11.9 ± 1.3%
HbF ([2]; zileuton 75 μM, individual Hb SS patients (No. 1-3)): 11% (2×) and 18%
HbF [2, 6]: 13.2 ± 1.4%
HbF ([2]; zileuton 100 μM, individual Hb SS patients (No. 1-3)): 13% and 14% and 21%
HbF [2, 7]: 15.9±1.4% and 15.9%
HbF [2, 8]: 15.9 ± 1.4%
fold decrease in BFU-E colony number [3]: 11.7 fold
BFU-E Difference [3]: 112.6 ± 19.1
BFU-E ([3]; zileuton 25 μM, individual Hb SS patients (No. 1-3), colony number, 13–14 days): 137 and 61 and 91
BFU-E [3, 4]: 96.4 ± 11.1
BFU-E ([3]; zileuton 50 μM, individual Hb SS patients (No. 1-3), colony number): 62 and 47 and 72
BFU-E [3, 5]: 60.4 ± 4.3
BFU-E ([3]; zileuton 75 μM, individual Hb SS patients (No. 1-3), colony number): 23 and 27 and 43
BFU-E [3, 6]: 31.1 ± 3.2
BFU-E ([3]; zileuton 100 μM, individual Hb SS patients (No. 1-3), colony number): 13 and 12 and 7
BFU-E [3, 7]: 10.6±2.0 and 10.5
BFU-E [3, 8]: 10.5 ± 1.3
decrease in K562 cell viability (K562 cells): 10%

NC(=O)NO [HU, Hydroxyurea]
fold increase in γ mRNA ([1]; HU 100 μM): 2.7 fold
fold increase in hemoglobin F [2]: 3.8 fold
HbF Difference [2]: 14.4 ± 1.5%
fold decrease in BFU-E colony number [3]: 21.3 fold
BFU-E Difference [3]: 146.4 ± 9.1
decrease in K562 cell viability (K562 cells): 10%
